Laboratory results from patent publication US12065430B2, “Indazole compound or salt thereof” (TAIHO PHARMACEUTICAL CO., LTD., priority 2018, dated 2024).

Molecular target: G12C K-Ras4B (1-169) (Homo sapiens (Human), UniProt P01116, G12C)
Assay: Test of compounds on whether to bind to KRASG12C (LC-MS compound binding rate)
Conditions: final compound concentration of 2 μM, 1 μM protein, 25° C. for 2 hours
In short: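 K-Ras4B (1-169) WT and G12C (1 μM each, mixed) in 1×TBS, 0.1 mM TCEP incubated with compound (final 2 μM) 2 h at 25° C; quenched with 0.2% formic acid. Intact-protein LC-MS (ESI+, deconvoluted); binding rate = adduct signal/(adduct + unbound signal), giving selectivity over WT.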

G12C K-Ras4B (1-169), sequence (P01116 other isoform, or with tags, fused parts or gaps G12C): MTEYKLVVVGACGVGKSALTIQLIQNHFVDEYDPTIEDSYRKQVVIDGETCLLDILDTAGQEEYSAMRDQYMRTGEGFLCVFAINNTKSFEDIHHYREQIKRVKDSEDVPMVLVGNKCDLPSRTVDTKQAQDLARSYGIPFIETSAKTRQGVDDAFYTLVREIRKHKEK

Compound: C=CC(=O)N1C[C@@H](CF)[C@@H](NC(=O)c2c(C)nc(CNc3n[nH]c4cc(Cl)c(C(C)(C)C)cc34)n2C)C1 [Example 66, N-((3R,4R)-1-acryloyl-4-(fluoromethyl)pyrrolidin-3-yl)-2-(((5-(tert-butyl)-6-chloro-1H-indazol-3-yl)amino)methyl)-1,4-dimethyl-1H-imidazole-5-carboxamide]
- binding rate for G12C K-Ras4B (1-169): A (a binding rate of 80% or more is rated “A,”)

Compound: C=CC(=O)N1C[C@@H](COC)[C@@H](NC(=O)c2c(C)nc(CNc3n[nH]c4cc(Cl)c(C(C)(C)C)cc34)n2C)C1 [Example 67, N-((3R,4R)-1-acryloyl-4-(methoxymethyl)pyrrolidin-3-yl)-2-(((5-(tert-butyl)-6-chloro-1H-indazol-3-yl)amino)methyl)-1,4-dimethyl-1H-imidazole-5-carboxamide]
- binding rate for G12C K-Ras4B (1-169): A (a binding rate of 80% or more is rated “A,”)

Compound: C=CC(=O)N1C[C@@H](CN(C)C)[C@@H](NC(=O)c2c(C)nc(CNc3n[nH]c4cc(Cl)c(C(C)(C)C)cc34)n2C)C1 [Example 68, N-((3R,4R)-1-acryloyl-4-((dimethylamino)methyl)pyrrolidin-3-yl)-2-(((5-(tert-butyl)-6-chloro-1H-indazol-3-yl)amino)methyl)-1,4-dimethyl-1H-imidazole-5-carboxamide]
- binding rate for G12C K-Ras4B (1-169): C (a binding rate of 40% or more and less than 60% is rated “C,”)

Compound: C=CC(=O)N1C[C@@H](CC)[C@@H](NC(=O)c2c(C)nc(CNc3n[nH]c4cc(Cl)c(C(C)(C)C)cc34)n2C)C1 [Example 69, N-((3R,4R)-1-acryloyl-4-ethylpyrrolidin-3-yl)-2-(((5-(tert-butyl)-6-chloro-1H-indazol-3-yl)amino)methyl)-1,4-dimethyl-1H-imidazole-5-carboxamide]
- binding rate for G12C K-Ras4B (1-169): E (a binding rate of less than 20% is rated “E.”)

Compound: C=CC(=O)N1C[C@H](NC(=O)c2c(C(F)F)nc(CNc3n[nH]c4cc(Cl)c(C(C)(C)C)cc34)n2C)[C@@H](F)C1 [Example 70, N-((3S,4S)-1-acryloyl-4-fluoropyrrolidin-3-yl)-2-(((5-(tert-butyl)-6-chloro-1H-indazol-3-yl)amino)methyl)-4-(difluoromethyl)-1-methyl-1H-imidazole-5-carboxamide]
- binding rate for G12C K-Ras4B (1-169): A (a binding rate of 80% or more is rated “A,”)

Compound: C=CC(=O)N1C[C@@H](C)[C@@H](NC(=O)c2c(C(F)F)nc(CNc3n[nH]c4cc(Cl)c(C(C)(C)C)cc34)n2C)C1 [Example 71, N-((3R,4R)-1-acryloyl-4-methylpyrrolidin-3-yl)-2-(((5-(tert-butyl)-6-chloro-1H-indazol-3-yl)amino)methyl)-4-(difluoromethyl)-1-methyl-1H-imidazole-5-carboxamide]
- binding rate for G12C K-Ras4B (1-169): C (a binding rate of 40% or more and less than 60% is rated “C,”)

Compound: C=CC(=O)N1CC[C@@H](NC(=O)c2c(F)nc(CNc3n[nH]c4cc(Cl)c(C(C)(C)C)cc34)n2C)C1 [Example 72, (R)—N-(1-acryloylpyrrolidin-3-yl)-2-(((5-(tert-butyl)-6-chloro-1H-indazol-3-yl)amino)methyl)-4-fluoro-1-methyl-1H-imidazole-5-carboxamide]
- binding rate for G12C K-Ras4B (1-169): B (a binding rate of 60% or more and less than 80% is rated “B,”)

Compound: C=CC(=O)N1CC[C@@H](NC(=O)c2c(Cl)nc(CNc3n[nH]c4cc(Cl)c(C(C)(C)C)cc34)n2C)C1 [Example 73, (R)—N-(1-acryloylpyrrolidin-3-yl)-2-(((5-(tert-butyl)-6-chloro-1H-indazol-3-yl)amino)methyl)-4-chloro-1-methyl-1H-imidazole-5-carboxamide]
- binding rate for G12C K-Ras4B (1-169): B (a binding rate of 60% or more and less than 80% is rated “B,”)

Compound: C=CC(=O)N1C[C@@H](C)[C@@H](NC(=O)c2c(F)nc(CNc3n[nH]c4cc(Cl)c(C(C)(C)C)cc34)n2C)C1 [Example 74, N-((3R,4R)-1-acryloyl-4-methylpyrrolidin-3-yl)-2-(((5-(tert-butyl)-6-chloro-1H-indazol-3-yl)amino)methyl)-4-fluoro-1-methyl-1H-imidazole-5-carboxamide]
- binding rate for G12C K-Ras4B (1-169): A (a binding rate of 80% or more is rated “A,”)

Compound: C=CC(=O)N1CC[C@@H](N(C)C(=O)c2cnc(CNc3n[nH]c4cc(Cl)c(C(C)(C)C)cc34)n2C)C1 [Example 77, (R)—N-(1-acryloylpyrrolidin-3-yl)-2-(((5-(tert-butyl)-6-chloro-1H-indazol-3-yl)amino)methyl)-N,1-dimethyl-1H-imidazole-5-carboxamide]
- binding rate for G12C K-Ras4B (1-169): C (a binding rate of 40% or more and less than 60% is rated “C,”)

Compound: Cc1nc(CNc2n[nH]c3cc(Cl)c(C(C)(C)C)cc23)n(C(C)C)c1C(=O)NC1CN(C(=O)/C=C/CN2CCCCC2)C1 [Example 79, (E)-2-(((5-(tert-butyl)-6-chloro-1H-indazol-3-yl)amino)methyl)-1-isopropyl-4-methyl-N-(1-(4-(piperidin-1-yl)but-2-enoyl)azetidin-3-yl)-1H-imidazole-5-carboxamide]
- binding rate for G12C K-Ras4B (1-169): E (a binding rate of less than 20% is rated “E.”)

Compound: Cc1nc(CNc2n[nH]c3cc(Cl)c(C(C)(C)C)cc23)n(C)c1C(=O)NC1CN(C(=O)/C=C/CN(C)C)C1 [Example 80, (E)-2-(((5-(tert-butyl)-6-chloro-1H-indazol-3-yl)amino)methyl)-N-(1-(4-(dimethylamino)but-2-enoyl)azetidin-3-yl)-1,4-dimethyl-1H-imidazole-5-carboxamide]
- binding rate for G12C K-Ras4B (1-169): C (a binding rate of 40% or more and less than 60% is rated “C,”)

Compound: C/C=C/C(=O)N1CC(NC(=O)c2c(C)nc(CNc3n[nH]c4cc(Cl)c(C(C)(C)C)cc34)n2C(C)C)C1 [Example 81, (E)-N-(1-(but-2-enoyl)azetidin-3-yl)-2-(((5-(tert-butyl)-6-chloro-1H-indazol-3-yl)amino)methyl)-1-isopropyl-4-methyl-1H-imidazole-5-carboxamide]
- binding rate for G12C K-Ras4B (1-169): E (a binding rate of less than 20% is rated “E.”)

Compound: CC#CC(=O)N1CC(NC(=O)c2c(C)nc(CNc3n[nH]c4cc(Cl)c(C(C)(C)C)cc34)n2C(C)C)C1 [Example 82, N-(1-(buty-2-noyl)azetidin-3-yl)-2-(((5-(tert-butyl)-6-chloro-1H-indazol-3-yl)amino)methyl)-1-isopropyl-4-methyl-1H-imidazole-5-carboxamide]
- binding rate for G12C K-Ras4B (1-169): D (a binding rate of 20% or more and less than 40% is rated “D,”)

Compound: Cc1nc(CNc2n[nH]c3cc(Cl)c(C(C)(C)C)cc23)n(C(C)C)c1C(=O)NC1CN(C(=O)/C=C\Cl)C1 [Example 83, (Z)-2-(((5-(tert-butyl)-6-chloro-1H-indazol-3-yl)amino)methyl)-N-(1-(3-chloroacryloyl)azetidin-3-yl)-1-isopropyl-4-methyl-1H-imidazole-5-carboxamide]
- binding rate for G12C K-Ras4B (1-169): D (a binding rate of 20% or more and less than 40% is rated “D,”)

Compound: CC(C)n1c(CNc2n[nH]c3cc(Cl)c(C(C)(C)C)cc23)nc(C(F)F)c1C(=O)NC1CN(C(=O)/C=C/CN(C)C)C1 [Example 84, (E)-2-(((5-(tert-butyl)-6-chloro-1H-indazol-3-yl)amino)methyl)-4-(difluoromethyl)-N-(1-(4-(dimethylamino)but-2-enoyl)azetidin-3-yl)-1-isopropyl-1H-imidazole-5-carboxamide]
- binding rate for G12C K-Ras4B (1-169): C (a binding rate of 40% or more and less than 60% is rated “C,”)

Compound: COC/C=C/C(=O)N1CC(NC(=O)c2c(C)nc(CNc3n[nH]c4cc(Cl)c(C(C)(C)C)cc34)n2C(C)C)C1 [Example 85, (E)-2-(((5-(tert-butyl)-6-chloro-1H-indazol-3-yl)amino)methyl)-1-isopropyl-N-(1-(4-methoxybut-2-enoyl)azetidin-3-yl)-4-methyl-1H-imidazole-5-carboxamide]
- binding rate for G12C K-Ras4B (1-169): C (a binding rate of 40% or more and less than 60% is rated “C,”)

Compound: C=CS(=O)(=O)N1CC(NC(=O)c2c(C)nc(CNc3n[nH]c4cc(Cl)c(C(C)(C)C)cc34)n2C(C)C)C1 [Example 86, 2-(((5-(tert-butyl)-6-chloro-1H-indazol-3-yl)amino)methyl)-1-isopropyl-4-methyl-N-(1-(vinylsulfonyl)azetidin-3-yl)-1H-imidazole-5-carboxamide]
- binding rate for G12C K-Ras4B (1-169): A (a binding rate of 80% or more is rated “A,”)

Compound: C=CC(=O)N1CC(NC(=O)c2c(Cl)nc(CNc3n[nH]c4cc(Cl)c(C(C)(C)C)cc34)n2CCCC)C1 [Example 87, N-(1-acryloylazetidin-3-yl)-1-butyl-2-(((5-(tert-butyl)-6-chloro-1H-indazol-3-yl)amino)methyl)-4-chloro-1H-imidazole-5-carboxamide]
- binding rate for G12C K-Ras4B (1-169): A (a binding rate of 80% or more is rated “A,”)

Compound: C=CC(=O)N1CC(NC(=O)c2cnc(CNc3n[nH]c4cc(Cl)c(C(C)(C)C)cc34)n2Cc2cc(OC)cc(OC)c2)C1 [Example 88, N-(1-acryloylazetidin-3-yl)-2-(((5-(tert-butyl)-6-chloro-1H-indazol-3-yl)amino)methyl)-1-(3,5-dimethoxybenzyl)-1H-imidazole-5-carboxamide]
- binding rate for G12C K-Ras4B (1-169): B (a binding rate of 60% or more and less than 80% is rated “B,”)

Compound: C=CC(=O)N1CC(NC(=O)c2c(Cl)nc(CNc3n[nH]c4cc(Cl)c(C(C)(C)C)cc34)n2CC(C)C)C1 [Example 89, N-(1-acryloylazetidin-3-yl)-2-(((5-(tert-butyl)-6-chloro-1H-indazol-3-yl)amino)methyl)-4-chloro-1-isobutyl-1H-imidazole-5-carboxamide]
- binding rate for G12C K-Ras4B (1-169): A (a binding rate of 80% or more is rated “A,”)

Compound: C=CC(=O)N1CC(NC(=O)c2c(Cl)nc(CNc3n[nH]c4cc(Cl)c(C(C)(C)C)cc34)n2CCOC)C1 [Example 90, N-(1-acryloylazetidin-3-yl)-2-(((5-(tert-butyl)-6-chloro-1H-indazol-3-yl)amino)methyl)-4-chloro-1-(2-methoxyethyl)-1H-imidazole-5-carboxamide]
- binding rate for G12C K-Ras4B (1-169): A (a binding rate of 80% or more is rated “A,”)
